Data taken from patent publication US4315941A, “Urazole analogs of prostaglandin derivatives” (Beecham Group Limited, priority 1979, dated 1982).

What follows are molecules tested on 5-hydroxytryptamine or histamine induced bronchoconstriction (assay: Bronchodilation activity: inhibition of 5-hydroxytryptamine or histamine induced bronchoconstriction in the anaesthetised artificially respired guinea-pig (Konzett-Rossler preparation)). Details: Cavia porcellus, iv, 5-hydroxytryptamine or histamine induced bronchoconstriction (Konzett-Rossler).
Type: in vivo, guinear-pig
Description: The compounds were examined for their ability to inhibit 5-hydroxytryptamine or histamine induced bronchoconstriction in the anaesthetised artificially respired guinear-pig (Konzett-Rossler preparation).

Compared with `CCCCCCC(C)(O)CCn1c(=O)n(C)c(=O)n1CCCCCCCC(C)O` (stereo not shown) [Compound 4], `CCCCC(C)C(C)(O)CCn1c(=O)n(C)c(=O)n1CCCCCCCCC(C)O` (stereo not shown) [Compound 1, 1-(9'-Hydroxydecyl)-2-(3"-hydroxy-3",4"-dimethyloctyl)-4-methyl-1,2,4-triazolidine-3,5-dione] is 4.8-fold higher in ED50: 0.0042 mg/kg for the first, 0.02 mg/kg for the second.

Going from `CCCCC(C)C(C)(O)CCn1c(=O)n(C)c(=O)n1C/C=C\CCCCC(C)O` (stereo not shown) [Compound 3] to `CC(O)CCCC/C=C\Cn1c(=O)n(C)c(=O)n1CCC(C)(O)C1CCCCC1` (stereo not shown) [Compound 7], the ED50 rises from 0.0175 mg/kg to 0.16 mg/kg (9.1-fold).
